# Measurements reported in ChEMBL document CHEMBL2086238, “Identification of ETP-46321, a potent and orally bioavailable PI3K α, δ inhibitor” (Bioorg Med Chem Lett, 2012).
# Legend:
# [1] = molecular target: Epidermal growth factor receptor (Homo sapiens) (UniProt P00533); assay: Inhibition of EGFR at 1 uM
# [2] = molecular target: RAC-alpha serine/threonine-protein kinase (Homo sapiens) (UniProt P31749); assay: Inhibition of AKT1 at 5 uM
# [3] = molecular target: Phosphatidylinositol 4,5-bisphosphate 3-kinase catalytic subunit alpha isoform (Homo sapiens, UniProt P42336); assay: Inhibition of PI3Kalpha in human U2OS cells assessed as inhibition of AKT Ser 473 phosphorylation by Western blot; format: cell-based
# [4] = molecular target: T1, Serine/threonine-protein kinase Sgk1 (Homo sapiens) (UniProt O00141); assay: Inhibition of SGK1 at 5 uM
# T1 sequence (whole entry): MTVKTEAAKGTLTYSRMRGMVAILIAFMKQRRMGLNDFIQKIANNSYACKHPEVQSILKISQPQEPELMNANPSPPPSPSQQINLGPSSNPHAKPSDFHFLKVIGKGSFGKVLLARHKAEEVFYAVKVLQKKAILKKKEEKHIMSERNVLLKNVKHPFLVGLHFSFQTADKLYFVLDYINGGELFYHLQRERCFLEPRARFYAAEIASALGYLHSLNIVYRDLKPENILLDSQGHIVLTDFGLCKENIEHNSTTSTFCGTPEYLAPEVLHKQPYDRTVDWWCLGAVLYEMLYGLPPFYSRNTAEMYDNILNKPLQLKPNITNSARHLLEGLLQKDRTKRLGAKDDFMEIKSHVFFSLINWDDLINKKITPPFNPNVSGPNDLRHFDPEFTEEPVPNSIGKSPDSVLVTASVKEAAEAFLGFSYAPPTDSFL
# [5] = molecular target: Serine/threonine-protein kinase PAK 1 (Homo sapiens) (UniProt Q13153); assay: Inhibition of PAK1 at 5 uM
# [6] = molecular target: Mitogen-activated protein kinase 8 (Homo sapiens) (UniProt P45983); assay: Inhibition of JNK1 at 5 uM
# [7] = molecular target: Fibroblast growth factor receptor 1 (Homo sapiens) (UniProt P11362); assay: Inhibition of FGFR1 at 5 uM
# [8] = molecular target: Insulin receptor (Homo sapiens) (UniProt P06213); assay: Inhibition of INSR at 1 uM
# [9] = molecular target: T2, NUAK family SNF1-like kinase 1 (Homo sapiens) (UniProt O60285); assay: Inhibition of ARK5 at 1 uM
# T2 sequence (whole entry): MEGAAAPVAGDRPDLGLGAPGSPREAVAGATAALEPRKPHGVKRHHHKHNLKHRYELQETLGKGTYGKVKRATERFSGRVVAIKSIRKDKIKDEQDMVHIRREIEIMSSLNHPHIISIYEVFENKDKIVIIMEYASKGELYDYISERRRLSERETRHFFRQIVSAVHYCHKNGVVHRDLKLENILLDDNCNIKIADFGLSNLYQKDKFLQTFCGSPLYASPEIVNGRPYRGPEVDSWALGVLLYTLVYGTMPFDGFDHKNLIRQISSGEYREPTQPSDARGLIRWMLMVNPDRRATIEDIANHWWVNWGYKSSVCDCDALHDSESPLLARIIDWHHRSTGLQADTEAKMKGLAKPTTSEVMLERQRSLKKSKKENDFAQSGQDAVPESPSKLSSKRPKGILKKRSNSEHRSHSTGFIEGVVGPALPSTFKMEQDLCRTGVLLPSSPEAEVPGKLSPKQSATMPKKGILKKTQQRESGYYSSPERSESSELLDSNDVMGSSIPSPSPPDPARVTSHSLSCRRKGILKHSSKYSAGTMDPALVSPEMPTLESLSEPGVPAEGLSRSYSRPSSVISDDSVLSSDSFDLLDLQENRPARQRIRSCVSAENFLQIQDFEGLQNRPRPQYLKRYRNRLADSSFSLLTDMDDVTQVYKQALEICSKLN
# [10] = molecular target: Insulin-like growth factor 1 receptor (Homo sapiens) (UniProt P08069); assay: Inhibition of IGF1R at 5 uM
# CYP2D6 = CYP2D6 (Homo sapiens, UniProt P10635); assay: Inhibition of CYP2D6 at 10 uM; format: ADME
# [11] = molecular target: PI3-kinase p110-alpha/p85-alpha (Homo sapiens, UniProt P42336); assay: Inhibition of human PI3Kalpha (p110alpha/p85alpha) by ADP accumulation based HTRF assay; format: protein-complex assay; details: for Ki: read-out: Ki(app)
# [12] = molecular target: Epidermal growth factor receptor (Homo sapiens) (UniProt P00533); assay: Inhibition of EGFR at 5 uM
# [13] = molecular target: Hepatocyte growth factor receptor (Homo sapiens) (UniProt P08581); assay: Inhibition of MET at 1 uM
# [14] = molecular target: Dual specificity mitogen-activated protein kinase kinase 1 (Homo sapiens) (UniProt Q02750); assay: Inhibition of MEK1 at 5 uM
# [15] = molecular target: Mast/stem cell growth factor receptor Kit (Homo sapiens) (UniProt P10721); assay: Inhibition of KIT at 1 uM
# [16] = molecular target: T3, Serine/threonine-protein kinase 4 (Homo sapiens) (UniProt Q13043); assay: Inhibition of MST1 at 1 uM
# T3 sequence (whole entry): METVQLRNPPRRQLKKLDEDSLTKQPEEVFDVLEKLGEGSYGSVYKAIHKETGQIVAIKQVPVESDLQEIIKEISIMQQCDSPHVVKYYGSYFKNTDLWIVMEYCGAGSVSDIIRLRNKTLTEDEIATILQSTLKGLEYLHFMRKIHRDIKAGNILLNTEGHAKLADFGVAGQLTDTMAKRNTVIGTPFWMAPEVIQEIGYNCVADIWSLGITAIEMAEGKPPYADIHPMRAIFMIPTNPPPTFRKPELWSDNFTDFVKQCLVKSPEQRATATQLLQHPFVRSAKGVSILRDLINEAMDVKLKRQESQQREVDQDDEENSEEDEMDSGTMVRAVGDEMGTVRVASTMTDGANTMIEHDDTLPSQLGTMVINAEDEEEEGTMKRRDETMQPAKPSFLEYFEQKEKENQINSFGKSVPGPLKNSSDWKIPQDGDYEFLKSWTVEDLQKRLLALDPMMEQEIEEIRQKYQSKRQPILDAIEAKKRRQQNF
# [17] = molecular target: Dual specificity mitogen-activated protein kinase kinase 1 (Homo sapiens) (UniProt Q02750); assay: Inhibition of MEK1 at 1 uM
# [18] = molecular target: Serine/threonine-protein kinase pim-1 (Homo sapiens) (UniProt P11309); assay: Inhibition of PIM1 at 1 uM
# [19] = molecular target: Receptor-type tyrosine-protein kinase FLT3 (Homo sapiens) (UniProt P36888); assay: Inhibition of FLT3 at 1 uM
# [20] = molecular target: Dual specificity tyrosine-phosphorylation-regulated kinase 1A (Homo sapiens) (UniProt Q13627); assay: Inhibition of DYRK1A at 1 uM
# [21] = molecular target: Insulin receptor (Homo sapiens) (UniProt P06213); assay: Inhibition of INSR at 5 uM
# [22] = system: Serine/threonine-protein kinase B-raf (Homo sapiens), P15056 [V600E]; assay: Inhibition of BRAF V600E mutant at 5 uM
# [23] = molecular target: Casein kinase I isoform alpha (Homo sapiens) (UniProt P48729); assay: Inhibition of CK1alpha1 at 1 uM
# [24] = molecular target: Insulin-like growth factor 1 receptor (Homo sapiens) (UniProt P08069); assay: Inhibition of IGF1R at 1 uM
# [25] = molecular target: Focal adhesion kinase 1 (Homo sapiens) (UniProt Q05397); assay: Inhibition of FAK at 1 uM
# [26] = molecular target: T3, Serine/threonine-protein kinase 4 (Homo sapiens); assay: Inhibition of MST1 at 5 uM
# Insulin receptor (Homo sapiens), sequence (P06213 28-758 limits assumed): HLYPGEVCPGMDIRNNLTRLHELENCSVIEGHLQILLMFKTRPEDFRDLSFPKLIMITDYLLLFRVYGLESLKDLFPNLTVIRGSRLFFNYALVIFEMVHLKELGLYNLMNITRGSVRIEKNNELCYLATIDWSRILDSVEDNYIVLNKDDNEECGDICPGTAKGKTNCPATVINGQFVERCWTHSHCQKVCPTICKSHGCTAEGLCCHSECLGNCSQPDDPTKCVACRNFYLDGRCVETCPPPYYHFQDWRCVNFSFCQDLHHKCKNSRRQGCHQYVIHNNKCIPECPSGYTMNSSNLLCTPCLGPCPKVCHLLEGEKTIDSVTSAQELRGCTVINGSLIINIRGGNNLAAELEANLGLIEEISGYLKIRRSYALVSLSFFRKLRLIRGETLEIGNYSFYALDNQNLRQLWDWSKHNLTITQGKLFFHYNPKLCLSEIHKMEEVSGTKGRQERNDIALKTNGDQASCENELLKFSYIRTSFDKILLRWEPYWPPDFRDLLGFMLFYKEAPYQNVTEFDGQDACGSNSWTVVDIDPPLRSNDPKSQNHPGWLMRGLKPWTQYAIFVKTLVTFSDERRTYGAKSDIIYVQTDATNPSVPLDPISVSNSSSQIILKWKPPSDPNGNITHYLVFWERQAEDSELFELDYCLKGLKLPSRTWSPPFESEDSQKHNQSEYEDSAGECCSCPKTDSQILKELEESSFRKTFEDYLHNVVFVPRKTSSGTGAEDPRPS
# Insulin receptor (Homo sapiens), sequence (P06213 763-1382 limits assumed): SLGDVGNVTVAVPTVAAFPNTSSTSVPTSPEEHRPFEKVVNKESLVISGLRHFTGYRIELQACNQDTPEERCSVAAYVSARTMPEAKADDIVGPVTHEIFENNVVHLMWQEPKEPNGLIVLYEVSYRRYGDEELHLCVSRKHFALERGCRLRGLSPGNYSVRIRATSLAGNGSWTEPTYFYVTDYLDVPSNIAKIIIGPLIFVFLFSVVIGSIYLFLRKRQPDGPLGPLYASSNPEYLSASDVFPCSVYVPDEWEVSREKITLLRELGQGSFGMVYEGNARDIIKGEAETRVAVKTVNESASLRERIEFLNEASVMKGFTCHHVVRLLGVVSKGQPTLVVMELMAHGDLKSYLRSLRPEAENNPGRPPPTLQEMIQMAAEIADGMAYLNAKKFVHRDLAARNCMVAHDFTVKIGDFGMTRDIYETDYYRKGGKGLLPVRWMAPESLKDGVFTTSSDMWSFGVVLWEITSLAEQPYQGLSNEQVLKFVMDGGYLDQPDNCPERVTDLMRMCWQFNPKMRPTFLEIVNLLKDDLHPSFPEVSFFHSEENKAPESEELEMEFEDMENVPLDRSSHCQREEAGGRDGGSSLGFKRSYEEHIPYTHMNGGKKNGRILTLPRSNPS
# Mitogen-activated protein kinase 8 (Homo sapiens), sequence (P45983 whole entry): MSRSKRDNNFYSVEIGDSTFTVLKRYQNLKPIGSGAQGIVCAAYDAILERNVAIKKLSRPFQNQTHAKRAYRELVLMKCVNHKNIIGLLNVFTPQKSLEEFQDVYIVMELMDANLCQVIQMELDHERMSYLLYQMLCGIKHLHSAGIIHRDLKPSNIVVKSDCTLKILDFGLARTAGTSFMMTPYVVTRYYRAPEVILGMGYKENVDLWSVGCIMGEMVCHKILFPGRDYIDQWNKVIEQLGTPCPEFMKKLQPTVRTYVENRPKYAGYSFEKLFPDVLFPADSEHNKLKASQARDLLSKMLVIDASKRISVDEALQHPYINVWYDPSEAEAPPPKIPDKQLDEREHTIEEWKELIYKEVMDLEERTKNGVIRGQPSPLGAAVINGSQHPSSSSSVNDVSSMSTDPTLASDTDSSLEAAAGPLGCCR
# Mast/stem cell growth factor receptor Kit (Homo sapiens), sequence (P10721 whole entry): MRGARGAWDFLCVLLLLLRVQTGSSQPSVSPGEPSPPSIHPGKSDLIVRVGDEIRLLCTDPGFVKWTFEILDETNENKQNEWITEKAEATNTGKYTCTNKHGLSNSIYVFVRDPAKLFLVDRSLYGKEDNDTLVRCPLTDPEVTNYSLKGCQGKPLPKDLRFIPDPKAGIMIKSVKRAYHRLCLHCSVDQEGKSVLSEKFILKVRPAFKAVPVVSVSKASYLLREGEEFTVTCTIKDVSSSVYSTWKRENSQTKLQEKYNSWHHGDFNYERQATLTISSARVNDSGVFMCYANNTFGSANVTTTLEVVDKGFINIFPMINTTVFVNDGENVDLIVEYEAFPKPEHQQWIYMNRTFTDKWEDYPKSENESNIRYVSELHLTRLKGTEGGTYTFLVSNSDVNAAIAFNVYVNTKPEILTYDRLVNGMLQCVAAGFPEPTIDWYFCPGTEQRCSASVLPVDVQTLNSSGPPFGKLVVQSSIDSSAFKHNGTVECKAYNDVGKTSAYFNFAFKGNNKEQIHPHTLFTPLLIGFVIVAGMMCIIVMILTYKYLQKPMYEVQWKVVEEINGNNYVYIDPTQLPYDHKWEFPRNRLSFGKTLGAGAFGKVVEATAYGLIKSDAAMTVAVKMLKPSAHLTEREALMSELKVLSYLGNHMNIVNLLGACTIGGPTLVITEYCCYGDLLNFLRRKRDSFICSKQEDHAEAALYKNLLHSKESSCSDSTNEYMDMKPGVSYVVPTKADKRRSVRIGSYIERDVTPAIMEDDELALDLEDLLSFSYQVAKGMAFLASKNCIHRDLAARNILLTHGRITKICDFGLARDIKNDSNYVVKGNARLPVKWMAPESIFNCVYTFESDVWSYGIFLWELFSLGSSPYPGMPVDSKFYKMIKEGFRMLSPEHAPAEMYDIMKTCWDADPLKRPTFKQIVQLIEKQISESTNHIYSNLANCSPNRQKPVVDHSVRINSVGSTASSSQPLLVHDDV
# Serine/threonine-protein kinase B-raf (Homo sapiens), P15056 [V600E], sequence (P15056 whole entry V600E, canonical isoform): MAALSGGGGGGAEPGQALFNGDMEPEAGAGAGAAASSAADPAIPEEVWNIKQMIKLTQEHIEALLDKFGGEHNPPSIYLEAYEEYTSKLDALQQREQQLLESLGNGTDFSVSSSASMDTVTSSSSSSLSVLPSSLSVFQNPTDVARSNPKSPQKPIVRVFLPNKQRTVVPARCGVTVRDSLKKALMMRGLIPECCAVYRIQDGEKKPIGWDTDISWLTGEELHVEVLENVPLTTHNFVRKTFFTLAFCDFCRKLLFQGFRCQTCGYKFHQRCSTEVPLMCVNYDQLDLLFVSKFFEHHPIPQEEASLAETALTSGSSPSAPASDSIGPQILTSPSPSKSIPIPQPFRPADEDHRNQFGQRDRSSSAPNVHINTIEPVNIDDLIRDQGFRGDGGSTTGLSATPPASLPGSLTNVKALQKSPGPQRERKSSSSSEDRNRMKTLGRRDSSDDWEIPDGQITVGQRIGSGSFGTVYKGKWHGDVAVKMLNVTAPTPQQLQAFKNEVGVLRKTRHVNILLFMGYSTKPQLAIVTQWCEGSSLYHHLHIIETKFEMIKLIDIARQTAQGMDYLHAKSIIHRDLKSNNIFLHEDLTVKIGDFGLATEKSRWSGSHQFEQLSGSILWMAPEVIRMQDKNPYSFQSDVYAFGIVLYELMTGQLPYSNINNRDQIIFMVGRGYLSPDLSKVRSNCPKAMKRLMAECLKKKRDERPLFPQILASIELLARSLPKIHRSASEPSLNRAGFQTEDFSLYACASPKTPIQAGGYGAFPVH
# Focal adhesion kinase 1 (Homo sapiens), sequence (Q05397 2-1052 limits assumed): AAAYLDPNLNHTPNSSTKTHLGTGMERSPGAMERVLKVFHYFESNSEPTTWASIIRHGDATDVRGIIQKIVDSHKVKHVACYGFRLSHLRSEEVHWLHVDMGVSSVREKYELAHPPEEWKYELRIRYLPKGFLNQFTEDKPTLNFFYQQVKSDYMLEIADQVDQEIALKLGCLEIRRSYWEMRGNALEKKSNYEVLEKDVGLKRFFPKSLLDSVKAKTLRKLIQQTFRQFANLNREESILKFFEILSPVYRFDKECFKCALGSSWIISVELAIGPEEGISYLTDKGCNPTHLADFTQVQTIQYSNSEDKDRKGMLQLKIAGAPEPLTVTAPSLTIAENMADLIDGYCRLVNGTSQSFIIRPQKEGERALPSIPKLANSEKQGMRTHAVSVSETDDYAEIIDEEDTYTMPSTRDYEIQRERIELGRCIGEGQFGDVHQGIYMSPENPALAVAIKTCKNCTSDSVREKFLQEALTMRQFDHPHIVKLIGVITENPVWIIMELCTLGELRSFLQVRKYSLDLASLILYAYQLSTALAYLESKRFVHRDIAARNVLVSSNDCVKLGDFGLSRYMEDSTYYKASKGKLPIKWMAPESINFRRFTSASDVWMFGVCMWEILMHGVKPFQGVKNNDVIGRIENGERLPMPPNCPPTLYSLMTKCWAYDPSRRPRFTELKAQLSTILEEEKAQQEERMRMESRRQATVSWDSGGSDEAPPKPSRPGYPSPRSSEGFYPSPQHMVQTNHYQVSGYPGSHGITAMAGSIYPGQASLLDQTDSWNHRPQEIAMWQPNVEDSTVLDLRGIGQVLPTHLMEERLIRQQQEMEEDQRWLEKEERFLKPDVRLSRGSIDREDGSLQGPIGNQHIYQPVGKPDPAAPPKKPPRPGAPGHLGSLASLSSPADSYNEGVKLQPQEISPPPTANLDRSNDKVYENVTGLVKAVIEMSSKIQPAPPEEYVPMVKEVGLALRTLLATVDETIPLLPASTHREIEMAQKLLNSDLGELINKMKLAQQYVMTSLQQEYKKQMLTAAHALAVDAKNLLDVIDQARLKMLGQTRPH
# Casein kinase I isoform alpha (Homo sapiens), sequence (P48729 2-337 limits assumed): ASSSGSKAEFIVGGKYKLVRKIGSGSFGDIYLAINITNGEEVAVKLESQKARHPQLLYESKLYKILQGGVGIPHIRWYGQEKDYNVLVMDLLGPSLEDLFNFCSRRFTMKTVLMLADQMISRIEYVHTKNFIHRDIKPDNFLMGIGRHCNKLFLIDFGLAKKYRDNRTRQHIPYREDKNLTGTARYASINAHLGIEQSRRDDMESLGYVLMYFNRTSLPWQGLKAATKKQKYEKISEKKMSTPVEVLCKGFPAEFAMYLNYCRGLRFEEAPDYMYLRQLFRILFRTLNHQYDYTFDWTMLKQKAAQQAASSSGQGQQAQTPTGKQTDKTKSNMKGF
inhibition [1] [%],inhibition [2] [%],inhibition [4] [%],inhibition [5] [%],inhibition [6] [%],inhibition [7] [%],inhibition [8] [%],inhibition [9] [%],inhibition [10] [%],inhibition [12] [%],inhibition [13] [%],inhibition [14] [%],inhibition [15] [%],inhibition [16] [%],inhibition [17] [%],inhibition [18] [%],inhibition [19] [%],inhibition [20] [%],inhibition [21] [%],inhibition [22] [%],SMILES,other results
< 30,< 30,< 30,< 30,< 30,< 30,< 30,< 30,< 30,< 30,< 30,< 30,< 30,< 30,< 30,< 30,< 30,< 30,< 30,< 30,Cc1c(CN2CCN(S(C)(=O)=O)CC2)nc2c(N3CCOCC3)nc(-c3cnc(N)nc3)cn12,IC50 [3]: 15.4 nM; inhibition at 10 µM (CYP2D6): < 30%; IC50 [11]: 10 nM; Ki [11]: 10.1 nM; inhibition [23]: < 30%; inhibition [24]: < 30%; inhibition [25]: < 30%; inhibition [26]: < 30%
< 30,< 30,< 30,< 30,< 30,< 30,< 30,< 30,< 30,< 30,< 30,< 30,< 30,< 30,< 30,< 30,< 30,< 30,< 30,< 30,CS(=O)(=O)N1CCN(Cc2nc3c(N4CCOCC4)nc(-c4cnc(N)nc4)cn3c2Br)CC1,IC50 [3]: 8.1 nM; inhibition at 10 µM (CYP2D6): < 30%; IC50 [11]: 0.7 nM; inhibition [23]: < 30%; inhibition [24]: < 30%; inhibition [25]: < 30%; inhibition [26]: < 30%
< 30,< 30,< 30,< 30,< 30,< 30,< 30,< 30,< 30,< 30,< 30,< 30,< 30,< 30,< 30,< 30,< 30,< 30,< 30,< 30,Cc1nc(N)ncc1-c1cn2cc(CN3CCN(S(C)(=O)=O)CC3)nc2c(N2CCOCC2)n1,inhibition [23]: < 30%; inhibition [24]: < 30%; inhibition [25]: < 30%; inhibition [26]: < 30%
< 30,< 30,< 30,< 30,< 30,< 30,< 30,< 30,< 30,< 30,< 30,< 30,< 30,< 30,< 30,< 30,< 30,< 30,< 30,< 30,CS(=O)(=O)N1CCN(Cc2cn3cc(-c4cnc(N)nc4)nc(N4CCOCC4)c3n2)CC1,inhibition at 10 µM (CYP2D6): < 30%; inhibition [23]: < 30%; inhibition [24]: < 30%; inhibition [25]: < 30%; inhibition [26]: < 30%
< 30,< 30,< 30,< 30,< 30,< 30,< 30,< 30,< 30,< 30,< 30,< 30,< 30,< 30,< 30,< 30,< 30,< 30,< 30,< 30,CS(=O)(=O)N1CCN(Cc2cn3c(Cl)c(-c4cnc(N)nc4)nc(N4CCOCC4)c3n2)CC1,IC50 [3]: 5.2 nM; inhibition at 10 µM (CYP2D6): < 30%; Ki [11]: 2.4 nM; inhibition [23]: < 30%; inhibition [24]: < 30%; inhibition [25]: < 30%; inhibition [26]: < 30%
